Assay results as given in US20250186409A1, “5-AMINOHEXAHYDRO-6,7,8-TRIHYDROXY-3H-OXAZOLO[3,4-A]PYRIDIN-3-ONE DERIVATIVES DERIVATIVES AS TLR4 MODULATORS FOR THE TREATMENT OF IMMUNE DISEASES” (CONSEJO SUPERIOR DE INVESTIGACIONES CIENTÍFICAS (CSIC), priority 2021, published 2025).
Entries after “also recorded” stand apart in the source; their conditions may differ. Values belong to the compound of their own block, whether it stands above or below them.

How the values were obtained:
[1] = tested on: glycosidases (human fibroblast lysates); test: Stability of the glycosidic linkage to glycosidases on incubation with human fibroblast lysates; format: in vitro ADME; conditions: 4 h, 37° C., pH 4.5, compound solution 200 μM, gas chromatography
Experimental: The stability of the glyosidic linkage in compounds 2, 4, 6, 8, 10, 12, 14, 16, 18, 20, 22, 25, 27, 29, 32 and 34 selected as representative examples, upon incubation with human fibroblast lysates for 4 h was checked. For such purpose, cells were scraped into ice-cold H2O (10^6 cells mL^−1) and lysed by sonication. Insoluble materials were removed by centrifugation at 15,000 rpm for 5 min and protein concentrations were determined with Protein Assay Rapid Kit (WAKO, Tokyo, Japan). 10 μL of the lysates in 0.1% Triton X-100 in distilled water were incubated at 37° C. with 20 μL of the compound solution (200 μM) in 0.1 M citrate buffer, pH 4.5. In control experiments, the activity of several lysosomas glycosidases was confirmed using fluorescent substrates. The substrates were 4-methylumbelliferone (4-MU)-conjugated β-D-glucopyranoside (for GCase), α-D-glucopyranoside (for α-glucosidase), α-D-galactopyranoside (for α-Galase) and β-D-galactopyranoside (for β-galactosidase). The liberated 4-methylumbelliferone was measured in the black-well plate with a Perkin Elmer Luminescence Spectrometer (excitation wavelength: 340 nm; emission: 460 nm). No traces of the free polysubstituted 2-oxa-3-oxoindolizidine, which would result from hydrolysis of the glycolipid mimetics, was detected by gas chromatography upon trimethylsilylation, confirming the stability of the compounds to the action of the glycosidases.

Splenocytes [2] = test: Suppression of LPS-induced inflammation (splenocytes in vitro); format: cell-based, mouse; conditions: splenocytes treated concurrently with compound and LPS, FIG. 1
Experimental: FIG. 1. […] Splenocytes were treated concurrently with the compounds of the invention and LPS to assess the suppressive function of compounds on LPS-induced inflammation, with several compounds showing prominent suppressive function.
(§1) The whole spleen was surgically removed from a mouse and mechanically dissociated into a single cell suspension of splenocytes, which were then cultured in the complete RPMI 1640 medium (cRPMI). Human peripheral blood mononuclear cells (PBMCs) from healthy volunteers were collected from whole blood through gradient-centrifugation with Histopaque-1077 (Sigma-Aldrich).
Splenocytes were treated concurrently with the compounds of the invention and LPS to assess the suppressive function of compounds on LPS-induced inflammation.

[3] = tested on: ERK and p38 of the MAPK family, JNK and STAT3; test: Signal transduction by multiplex bead array (phosphorylation versus LPS treatment alone); format: cell-based; conditions: compared to LPS treatment alone, 30 min post-treatment, FIG. 4
Description: FIG. 4. […] Compounds 4 and 14, the representative compounds of the invention, were examined in term of signal transduction to explore how the new compounds exert their suppressive effect, using the multiplex bead array.
Using the multiplex bead array, we examined how the new compounds might exert their suppressive effect in term of signal transduction.

[4] = tested on: bone marrow-derived macrophages (BMDM); test: Suppression of LPS-induced inflammation (BMDM in vitro); format: cell-based; conditions: FIG. 2; for suppression of IL-6 / suppression of TNFα: LPS-induced, BMDM; for suppression of IL-6: 50 μM; for suppression of TNFα: 10 and 50 μM
Description: Since macrophage is the major responder to LPS-induced inflammation, we assessed the capability of selected compounds to suppress LPS-induced inflammation in bone marrow-derived macrophages (BMDM).

[5] = tested on: OVA-induced AHR mouse model; test: OVA-induced airway hyperreactivity (AHR) and airway inflammation mouse model; format: in vivo; conditions: for suppression of OVA-induced airway hyperreactivity (AHR): OVA-induced AHR mouse model, FIG. 7; for suppression of IL-4 mRNA level in lungs / suppression of IL-13 mRNA level in lungs: lung mRNA, FIG. 10
Experimental: For ovalbumin (OVA) challenge, mice were sensitized intraperitoneally (i.p.) with 50 μg of OVA with 2% alhydrogel adjuvant (InvivoGen). Mice were challenged three times with 50 μg of OVA on day 7 post-sensitization, either daily or every other day. Mice were sacrificed the day after the last OVA challenge.
Mice were anesthetized with 100 mg per kg body weight pentobarbital (Sigma-Aldrich), tracheotomised and mechanically ventilated via the FinePointe RC system (Buxco Research Systems, Wilmington, NC). Lung function was assessed by measuring lung resistance and dynamic compliance in response to increasing doses of aerosolized methacholine (1.25-40 mg/mL, Sigma-Aldrich).
Upon exposure of the trachea, the lungs were lavaged twice with 1 mL of PBS supplemented with 2% fetal calf serum (FCS). BALF was pooled and BAL cells were pelleted by centrifugation and fixed onto cytospin slides. The slides were stained with Diff-Quik solution (Polysciences Inc) and BAL differential cell count was performed.
Using the Th2 OVA-induced AHR mouse model, we assessed the capability of selected compounds 14 and 29 in suppressing Th2 inflammation.

B6 mice [6] = test: Suppression of LPS-induced inflammation in vivo; conditions: injected twice in a half hour time after LPS-treatment, FIG. 3
Experimental: FIG. 3. […] The in vivo capability of compound 29 in suppressing LPS-induced inflammation in B6 mice was assessed as indicated in the scheme.
To determine the anti-inflammatory function in vivo, we assessed the capability of compound 29 in suppressing LPS-induced inflammation in B6 mice.

Splenocytes [7] = test: Immune-stimulating function of compounds alone (splenocytes in vitro); format: cell-based, mouse; conditions: splenocytes treated with compound alone, FIG. 6
Experimental: FIG. 6. […] Splenocytes were treated with the compounds of the invention alone to assess the immune-stimulating function of the compounds.
as §1
Splenocytes were treated with the compounds of the invention alone to assess the immune-stimulating function of the compounds by measuring their ability to promote the secretions of IFN-γ and IL-4.

B6 mice [8] = test: Adjuvancy function of compounds in vivo (serum IFNγ and IL-4); conditions: FIG. 11
Experimental: FIG. 11. […] The adjuvancy capability of the selected compound 29 in vivo was assessed by measuring the serum level of IFNγ and IL-4 induced after injecting them into B6 mice.
Besides assessing the ability of the new compounds to suppress inflammation, we also looked into their function to act as adjuvants, i.e. their ability to promote desirable immunological trends in the development of vaccines. We measured the in vivo adjuvancy capability of selected compounds 29 in inducing IFNγ and IL-4 in B6 mice (FIG. 11).

[9] = bronchoalveolar lavage fluid, FIG. 8

free polysubstituted 2-oxa-3-oxoindolizidine from hydrolysis of the glycolipid mimetic (stability to glycosidases) [1]: No traces
SMILES: CCCCNS(=O)(=O)N[C@@H]1C(O)[C@@H](O)[C@H](O)C2COC(=O)N21 (stereo partly shown) [Compound 8]

free polysubstituted 2-oxa-3-oxoindolizidine from hydrolysis of the glycolipid mimetic (stability to glycosidases) [1]: No traces
SMILES: CCCCCCCCOS(=O)(=O)N[C@@H]1C(O)[C@@H](O)[C@H](O)C2COC(=O)N21 (stereo partly shown) [Compound 16]

free polysubstituted 2-oxa-3-oxoindolizidine from hydrolysis of the glycolipid mimetic (stability to glycosidases) [1]: No traces
SMILES: CCCCCCCCNS(=O)(=O)N[C@@H]1C(O)[C@@H](O)[C@H](O)C2COC(=O)N21 (stereo partly shown) [Compound 10]

free polysubstituted 2-oxa-3-oxoindolizidine from hydrolysis of the glycolipid mimetic (stability to glycosidases) [1]: No traces
SMILES: CCCCCCCCCCCCOP(=O)(N[C@@H]1C(O)[C@@H](O)[C@H](O)C2COC(=O)N21)OCCCCCCCCCCCC (stereo partly shown) [Compound 6]
suppression of LPS-induced inflammation (Splenocytes [2]): prominent inflammation-suppressing function

free polysubstituted 2-oxa-3-oxoindolizidine from hydrolysis of the glycolipid mimetic (stability to glycosidases) [1]: No traces
SMILES: CCCCCCCCOP(=O)(N[C@@H]1C(O)[C@@H](O)[C@H](O)C2COC(=O)N21)OCCCCCCCC (stereo partly shown) [Compound 4]
phosphorylation of ERK [3]: significantly reduced
phosphorylation of JNK [3]: but not JNK
phosphorylation of p38 [3]: significantly reduced
suppression of LPS-induced inflammation in BMDM [4]: efficient in suppressing LPS-induced inflammation
suppression of IL-6 [4]: significant suppression
suppression of TNFα [4]: significant suppression
suppression of LPS-induced inflammation (Splenocytes [2]): prominent inflammation-suppressing function

SMILES: CCCCCCCCNC(=[Se])N[C@@H]1C(O)[C@@H](O)[C@H](O)C2COC(=O)N21 (stereo partly shown) [Compound 25]
free polysubstituted 2-oxa-3-oxoindolizidine from hydrolysis of the glycolipid mimetic (stability to glycosidases) [1]: No traces

free polysubstituted 2-oxa-3-oxoindolizidine from hydrolysis of the glycolipid mimetic (stability to glycosidases) [1]: No traces
SMILES: CCCCCCCCCCCCCCCCNS(=O)(=O)N[C@@H]1C(O)[C@@H](O)[C@H](O)C2COC(=O)N21 (stereo partly shown) [Compound 14]
phosphorylation of ERK [3]: significantly reduced
phosphorylation of JNK [3]: but not JNK
phosphorylation of STAT3 [3]: significant reduction
phosphorylation of p38 [3]: significantly reduced
suppression of LPS-induced inflammation in BMDM [4]: efficient in suppressing LPS-induced inflammation
suppression of IL-6 [4]: significant suppression
suppression of TNFα [4]: significant suppression
suppression of LPS-induced inflammation (Splenocytes [2]): prominent inflammation-suppressing function
suppression of OVA-induced airway hyperreactivity (AHR) [5]: can suppress AHR onset
suppression of IL-4 mRNA level in lungs [5]: significantly suppressed
suppression of IL-13 mRNA level in lungs [5]: significantly suppressed

SMILES: CCCCCCCCCCCCNC(=S)N[C@@H]1C(O)[C@@H](O)[C@H](O)C2COC(=O)N21 (stereo partly shown) [Compound 27]
free polysubstituted 2-oxa-3-oxoindolizidine from hydrolysis of the glycolipid mimetic (stability to glycosidases) [1]: No traces
suppression of LPS-induced inflammation (Splenocytes [2]): prominent inflammation-suppressing function

free polysubstituted 2-oxa-3-oxoindolizidine from hydrolysis of the glycolipid mimetic (stability to glycosidases) [1]: No traces
SMILES: CCCCCCCCS(=O)(=O)N[C@@H]1C(O)[C@@H](O)[C@H](O)C2COC(=O)N21 (stereo partly shown) [Compound 22]

free polysubstituted 2-oxa-3-oxoindolizidine from hydrolysis of the glycolipid mimetic (stability to glycosidases) [1]: No traces
SMILES: CCCCCCCCCCCCNC(=[Se])N[C@@H]1C(O)[C@@H](O)[C@H](O)C2COC(=O)N21 (stereo partly shown) [Compound 29]
suppression of LPS-induced serum TNFα (B6 mice [6]): significantly suppressed; also recorded: significantly suppressing
IFNγ secretion (Splenocytes [7]): effective in promoting; also recorded: induced significant IFNγ secretion
IL-4 secretion (Splenocytes [7]): but not IL-4
suppression of LPS-induced inflammation (Splenocytes [2]): prominent inflammation-suppressing function
suppression of OVA-induced airway hyperreactivity (AHR) [5]: suppress AHR significantly
suppression of IL-4 level in BALF [5, 9]: suppress both IL-13 and IL-4 levels significantly
suppression of IL-13 level in BALF [5, 9]: suppress both IL-13 and IL-4 levels significantly
suppression of IL-4 mRNA level in lungs [5]: significantly suppressed
suppression of IL-13 mRNA level in lungs [5]: significantly suppress; also recorded: significantly suppressed
suppression of IL-13 protein level in lungs ([5]; lung protein, FIG. 9): significantly suppress; also recorded: significant suppression
induction of serum IFNγ (B6 mice [8]; 2 hours after injection): significant capability
induction of serum IL-4 (B6 mice [8]; 2 hours after injection): significant capability
serum IFNγ level (B6 mice [8]; 18 hours after injection): significant detectable level

free polysubstituted 2-oxa-3-oxoindolizidine from hydrolysis of the glycolipid mimetic (stability to glycosidases) [1]: No traces
SMILES: CCCCCCCCCCCCCCCCOS(=O)(=O)N[C@@H]1C(O)[C@@H](O)[C@H](O)C2COC(=O)N21 (stereo partly shown) [Compound 20]

free polysubstituted 2-oxa-3-oxoindolizidine from hydrolysis of the glycolipid mimetic (stability to glycosidases) [1]: No traces
SMILES: CCOP(=O)(N[C@@H]1C(O)[C@@H](O)[C@H](O)C2COC(=O)N21)OCC (stereo partly shown) [Compound 2]

free polysubstituted 2-oxa-3-oxoindolizidine from hydrolysis of the glycolipid mimetic (stability to glycosidases) [1]: No traces
SMILES: CCCCCCCCCCCCNS(=O)(=O)N[C@@H]1C(O)[C@@H](O)[C@H](O)C2COC(=O)N21 (stereo partly shown) [Compound 12]

SMILES: CCCCCCCCCCCCOC(=S)N[C@@H]1C(O)[C@@H](O)[C@H](O)C2COC(=O)N21 (stereo partly shown) [Compound 34]
free polysubstituted 2-oxa-3-oxoindolizidine from hydrolysis of the glycolipid mimetic (stability to glycosidases) [1]: No traces

free polysubstituted 2-oxa-3-oxoindolizidine from hydrolysis of the glycolipid mimetic (stability to glycosidases) [1]: No traces
SMILES: CCCCCCCCCCCCOS(=O)(=O)N[C@@H]1C(O)[C@@H](O)[C@H](O)C2COC(=O)N21 (stereo partly shown) [Compound 18]

free polysubstituted 2-oxa-3-oxoindolizidine from hydrolysis of the glycolipid mimetic (stability to glycosidases) [1]: No traces
SMILES: CCCCCCCCCCCCCCCCNC(=[Se])N[C@@H]1C(O)[C@@H](O)[C@H](O)C2COC(=O)N21 (stereo partly shown) [Compound 32]
